{"source": "paper PMC11243320", "about": "“Tailoring Fibroblast-Activation Protein Targeting for Theranostics: A Comparative Preclinical Evaluation of the ^68Ga- and ^177Lu-Labeled Monomeric and Dimeric Fibroblast-Activation Protein Inhibitors DOTA.SA.FAPi and DOTAGA.(SA.FAPi)2” (Molecules, 2024)", "test_system": "PC3 tumor-bearing mice", "assay": "Ex vivo biodistribution of 68Ga-labeled radiotracers in PC3 xenografts", "experimental": "U87MG and PC3 tumor-bearing mice: Female athymic BALB/c (6 weeks/16–20 g) and male athymic BALB/c nude mice (6 weeks/20–25 g) were implanted with U87MG or PC3 cells (5 × 10^6/100 µL PBS) into their right shoulder, respectively. The animals were used for biodistribution and PET/SPECT/CT imaging studies (Animal License No: BE98/2021).\nTen pmol (0.08–0.1 MBq) of the radiotracers in 100 µL of NaCl 0.9% were injected intravenously into the tail vein of U87MG and PC3 tumor-bearing mice and biodistribution studies were conducted at 1, 2, and 3 h after injection.\nSaturation Binding Studies […]\nThe radioactivity of the culture medium, the receptor bound , the internalized and the externalized fractions were measured in a γ -counter. The externalized fraction of radioactivity was ex-pressed as the percentage of the total internalized amount.\n[68Ga]Ga -DOTA.SA.FAPi and [ 68Ga]Ga -DOTAGA.(SA.FAPi) 2\nTen pmol ( 0.08 –0.1 MBq) of [68Ga]Ga -monomer and [ 68Ga]Ga -dimer in 100 µ L of NaCl 0.9% were injected intravenously into the tail vein of U87MG or PC3 tumor bearing mice . The PC3 tumor-bearing mice were used between the 15th and 17th day after the xenograft implantation and the size was 281 ± 75 mm3. The U87MG tumor-bearing mice were used between the 7th and 9th day after the implantation and the size was 210 ± 34 mm3. Animals were terminally anesthetized by intraperitoneal injection of an overdose of pento-barbital natrium (150 mg/kg; Streuli Pharma SA, Uznach, Switzerland) at 1, 2 and 3 h after injection of the radiotracers. The organs of interest were dissected and weighed, and the radioactivity in the tissue samples […]\nwas counted in a γ-counter. Biodistribution data are given as the percent of injected activity per gram of tissue (% IA/g) and as means ± SD (n = 4). […]\neach radiotracer along with 20 nmol of UAMC1110 (total injected volume: 100 µL) and biodistribution stud-ies were performed 2 h after injection.\n[177Lu]Lu-DOTA.SA.FAPi and [177Lu]Lu-DOTAGA.(SA.FAPi)2\nTen pmol (0.06-0.08 MBq) of [177Lu]Lu-monomer and [177Lu]Lu-dimer in 100 µL of NaCl 0.9% were injected intravenously into the tail vein of PC3 tumor-bearing mice. The PC3 tumor-bearing mice were used between the 15th and 17th day after the xenograft implantation and its size was 281 ± 75 mm3. Animals were terminally anesthetized by intraperitoneal injection of an overdose of pentobarbital natrium (150 mg/kg; Streuli Pharma SA, Uznach, Switzerland) 1, 4, 24 and 48 h after the injection of [177Lu]Lu-DOTA.SA.FAPi and at 4, 24, 48, 72 and 96 h after the injection of [177Lu]Lu-DOTAGA.(SA.FAPi)2. The organs of interest were dissected and weighed, and the radioactivity in the tissue samples was counted in a γ-counter. The biodistribution data are given as the percent of injected activity per gram of tissue (% IA/g) and as means ± SD (n = 4). […]\nblood pools or if they were necrotic. Both tumor types were “clean” without extended vascularization; there […]\nSmall Animal Imaging Studies\nPET images were obtained after injection of 200 pmol of [68Ga]Ga-DOTA.SA.FAPi and [68Ga]Ga-DOT-AGA.(SA.FAPi)2 (1.0–1.6 MBq/100 μL) into U87MG or PC3 xenografts at 1, 2 and 3 h after injection. Static imaging was acquired for a time period between 10 and 45 min at 1, 2 and 3 h post injection, respectively.\nTo visualize the extent of FAP-specific tumor uptake, PET/CT blocking studies were performed as described above, and static scans were obtained for 30 min 2 h after the injection of the radiotracer along with the blocking agent (20 nmol).\nPET images were corrected for gallium-68 decay and reconstructed with 12 iterations of the maximum a posteriori (MAP) algorithm using a voxel size of 0.25 mm. No correction was applied for attenuation. In addition, a point spread function iterative deconvolution was applied. The images were normalized, filtered using a Gaussian 3D algorithm with a 1.3 mm isotropic kernel and generated using PMOD software. The CT was carried out using step and shoot mode and employed 45 kVp and 400 uA as settings. The images […]", "key": {"[1]": {"details": "2 h blocking (20 nmol UAMC1110)"}}, "data": [{"smiles": "N#C[C@@H]1CC(F)(F)CN1C(=O)CNC(=O)c1ccnc2ccc(OCCCCNc3c(NCCNC(=O)CN4CCN(CC(=O)[O-])CCN(CC(=O)[O-])CCN(CC(=O)[O-])CC4)c(=O)c3=O)cc12.[68Ga+3]", "note": "[[^68Ga]Ga-DOTA.SA.FAPi]", "values": [{"measurement": "Biodistribution Blood", "setting": "1 h", "result": "8.5± 0.6", "unit": "% IA/g"}, {"measurement": "Biodistribution Bone", "setting": "1 h", "result": "3.4±0.4", "unit": "% IA/g"}, {"measurement": "Biodistribution Heart", "setting": "1 h", "result": "4.6±1.6", "unit": "% IA/g"}, {"measurement": "Biodistribution Intestine", "setting": "1 h", "result": "2.7±0.2", "unit": "% IA/g"}, {"measurement": "Biodistribution Kidney", "setting": "1 h", "result": "3.6±0.3", "unit": "% IA/g"}, {"measurement": "Biodistribution Liver", "setting": "1 h", "result": "2.4±0.1", "unit": "% IA/g"}, {"measurement": "Biodistribution Lung", "setting": "1 h", "result": "3.4±0.6", "unit": "% IA/g"}, {"measurement": "Biodistribution Muscle", "setting": "1 h", "result": "2.5±0.2", "unit": "% IA/g"}, {"measurement": "Biodistribution PC3-Tumor", "setting": "1 h", "result": "6.1±0.7", "unit": "% IA/g"}, {"measurement": "Biodistribution Pancreas", "setting": "1 h", "result": "8.9±1.0", "unit": "% IA/g"}, {"measurement": "Biodistribution Spleen", "setting": "1 h", "result": "2.5±0.1", "unit": "% IA/g"}, {"measurement": "Biodistribution Stomach", "setting": "1 h", "result": "2.0±0.4", "unit": "% IA/g"}, {"measurement": "Tumor/Blood ratio", "setting": "1 h", "result": "0.7±0.03"}, {"measurement": "Tumor/Liver ratio", "setting": "1 h", "result": "1.8±0.1"}, {"measurement": "Tumor/Muscle ratio", "setting": "1 h", "result": "2.4±0.4"}, {"measurement": "Tumor/Pancreas ratio", "setting": "1 h", "result": "0.7±0.1"}, {"measurement": "Biodistribution Blood", "setting": "2 h", "result": "4.8±0.3", "unit": "% IA/g"}, {"measurement": "Biodistribution Bone", "setting": "2 h", "result": "2.0±0.2", "unit": "% IA/g"}, {"measurement": "Biodistribution Heart", "setting": "2 h", "result": "1.9±0.1", "unit": "% IA/g"}, {"measurement": "Biodistribution Intestine", "setting": "2 h", "result": "2.6±0.2", "unit": "% IA/g"}, {"measurement": "Biodistribution Kidney", "setting": "2 h", "result": "2.7±0.2", "unit": "% IA/g"}, {"measurement": "Biodistribution Liver", "setting": "2 h", "result": "2.7±0.2", "unit": "% IA/g"}, {"measurement": "Biodistribution Lung", "setting": "2 h", "result": "2.2±0.1", "unit": "% IA/g"}, {"measurement": "Biodistribution Muscle", "setting": "2 h", "result": "2.6±0.3", "unit": "% IA/g"}, {"measurement": "Biodistribution PC3-Tumor", "setting": "2 h", "result": "5.4±2.4", "unit": "% IA/g"}, {"measurement": "Biodistribution Pancreas", "setting": "2 h", "result": "6.4±0.5", "unit": "% IA/g"}, {"measurement": "Biodistribution Spleen", "setting": "2 h", "result": "1.7±0.1", "unit": "% IA/g"}, {"measurement": "Biodistribution Stomach", "setting": "2 h", "result": "1.4±0.1", "unit": "% IA/g"}, {"measurement": "Tumor/Blood ratio", "setting": "2 h", "result": "1.2±0.6"}, {"measurement": "Tumor/Liver ratio", "setting": "2 h", "result": "2.1±0.1"}, {"measurement": "Tumor/Muscle ratio", "setting": "2 h", "result": "2.1±1.2"}, {"measurement": "Tumor/Pancreas ratio", "setting": "2 h", "result": "0.9±0.4"}, {"measurement": "Biodistribution Blood", "setting": "[1]", "result": "0.3±0.1", "unit": "% IA/g"}, {"measurement": "Biodistribution Bone", "setting": "[1]", "result": "0.2±0.1", "unit": "% IA/g"}, {"measurement": "Biodistribution Heart", "setting": "[1]", "result": "0.1±0.05", "unit": "% IA/g"}, {"measurement": "Biodistribution Intestine", "setting": "[1]", "result": "0.4± 0.1", "unit": "% IA/g"}, {"measurement": "Biodistribution Kidney", "setting": "[1]", "result": "1.2±0.2", "unit": "% IA/g"}, {"measurement": "Biodistribution Liver", "setting": "[1]", "result": "0.2±0.04", "unit": "% IA/g"}, {"measurement": "Biodistribution Lung", "setting": "[1]", "result": "0.3±0.1", "unit": "% IA/g"}, {"measurement": "Biodistribution Muscle", "setting": "[1]", "result": "0.1±0.06", "unit": "% IA/g"}, {"measurement": "Biodistribution PC3-Tumor", "setting": "[1]", "result": "0.5±0.1", "unit": "% IA/g"}, {"measurement": "Biodistribution Pancreas", "setting": "[1]", "result": "0.1±0.06", "unit": "% IA/g"}, {"measurement": "Biodistribution Spleen", "setting": "[1]", "result": "0.1± 0.04", "unit": "% IA/g"}, {"measurement": "Biodistribution Stomach", "setting": "[1]", "result": "0.1±0.07", "unit": "% IA/g"}, {"measurement": "Biodistribution Blood", "setting": "3 h", "result": "4.7±0.4", "unit": "% IA/g"}, {"measurement": "Biodistribution Bone", "setting": "3 h", "result": "3.4±2.4", "unit": "% IA/g"}, {"measurement": "Biodistribution Heart", "setting": "3 h", "result": "2.0±0.1", "unit": "% IA/g"}, {"measurement": "Biodistribution Intestine", "setting": "3 h", "result": "2.4±0.4", "unit": "% IA/g"}, {"measurement": "Biodistribution Kidney", "setting": "3 h", "result": "2.4±0.4", "unit": "% IA/g"}, {"measurement": "Biodistribution Liver", "setting": "3 h", "result": "2.6±0.4", "unit": "% IA/g"}, {"measurement": "Biodistribution Lung", "setting": "3 h", "result": "2.1±0.3", "unit": "% IA/g"}, {"measurement": "Biodistribution Muscle", "setting": "3 h", "result": "2.3±0.2", "unit": "% IA/g"}, {"measurement": "Biodistribution PC3-Tumor", "setting": "3 h", "result": "5.0±0.2", "unit": "% IA/g"}, {"measurement": "Biodistribution Pancreas", "setting": "3 h", "result": "5.1±1.1", "unit": "% IA/g"}, {"measurement": "Biodistribution Spleen", "setting": "3 h", "result": "1.8±0.5", "unit": "% IA/g"}, {"measurement": "Biodistribution Stomach", "setting": "3 h", "result": "1.6±0.1", "unit": "% IA/g"}, {"measurement": "Tumor/Blood ratio", "setting": "3 h", "result": "1.8±0.2"}, {"measurement": "Tumor/Liver ratio", "setting": "3 h", "result": "3.3±0.5"}, {"measurement": "Tumor/Muscle ratio", "setting": "3 h", "result": "3.8±0.4"}, {"measurement": "Tumor/Pancreas ratio", "setting": "3 h", "result": "1.7±0.4"}]}]}
